Measurements from ChEMBL document CHEMBL2203114, “The Discovery of MK-4256, a Potent SSTR3 Antagonist as a Potential Treatment of Type 2 Diabetes” (ACS Med Chem Lett, 2012).
Calls of active or inactive are those of the source. No cut-off for these calls is given here.

Experiments:
[1] = target: Somatostatin receptor type 3 (Mus musculus) (UniProt P30935); experiment: Inhibition of mouse SSTR3 transfected in CHO cells assessed as inhibition of SRIF-induced reduction of cAMP accumulation after 45 mins relative to control; type: functional, cell-based; set-up: concentration or dose not given beside the values
Chain of Somatostatin receptor type 3 (Mus musculus) (P30935 whole entry): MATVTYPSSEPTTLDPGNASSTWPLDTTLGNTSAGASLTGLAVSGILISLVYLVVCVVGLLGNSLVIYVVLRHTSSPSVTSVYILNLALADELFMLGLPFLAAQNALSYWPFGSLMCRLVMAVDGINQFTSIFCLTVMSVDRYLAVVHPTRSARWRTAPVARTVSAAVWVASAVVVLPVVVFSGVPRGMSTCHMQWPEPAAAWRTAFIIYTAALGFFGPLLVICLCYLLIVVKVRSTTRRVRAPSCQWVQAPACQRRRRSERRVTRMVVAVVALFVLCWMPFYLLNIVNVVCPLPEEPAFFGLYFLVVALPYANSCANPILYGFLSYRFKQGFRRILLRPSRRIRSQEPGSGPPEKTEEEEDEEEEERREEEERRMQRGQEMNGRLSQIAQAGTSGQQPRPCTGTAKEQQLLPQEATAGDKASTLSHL

Mus musculus [2] = experiment: Antidiabetic activity in C57BL/6 mouse assessed as reduction of glucose excursion at 1 mg/kg, po by OGTT; type: functional; set-up: scale not given: the % may be the effect or the level left
[3] = target: T1, Somatostatin receptor type 3 (Mus musculus, UniProt P30935)
T1 sequence (P30935 whole entry): as above

[4] = target: T2, Somatostatin receptor type 3 (Homo sapiens, UniProt P32745)
T2 sequence (P32745 whole entry): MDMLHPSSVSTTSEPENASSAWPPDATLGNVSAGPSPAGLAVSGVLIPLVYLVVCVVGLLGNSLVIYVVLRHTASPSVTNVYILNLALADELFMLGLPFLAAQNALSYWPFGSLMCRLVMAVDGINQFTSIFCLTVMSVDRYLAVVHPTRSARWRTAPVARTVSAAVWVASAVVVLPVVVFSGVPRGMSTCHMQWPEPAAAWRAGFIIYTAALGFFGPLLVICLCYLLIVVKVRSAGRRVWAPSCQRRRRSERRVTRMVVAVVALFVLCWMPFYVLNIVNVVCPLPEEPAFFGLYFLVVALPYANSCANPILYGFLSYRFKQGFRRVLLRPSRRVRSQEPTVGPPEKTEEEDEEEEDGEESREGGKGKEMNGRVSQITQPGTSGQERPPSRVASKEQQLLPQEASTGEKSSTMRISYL
Description: Inhibition of human SSTR3 transfected in CHO cells assessed as inhibition of SRIF-induced reduction of cAMP accumulation after 45 mins

[5] = target: T1, Somatostatin receptor type 3; experiment: biochemical
Description: Displacement of [125I]SS-28 from mouse SSTR3 transfected in CHO cells after 60 to 90 mins

[6] = target: T2, Somatostatin receptor type 3; experiment: biochemical
Description: Displacement of [125I]SS-28 from human SSTR3 transfected in CHO cells after 60 to 90 mins

[7] = target: Voltage-gated inwardly rectifying potassium channel KCNH2 (Homo sapiens, UniProt Q12809)
Chain of Voltage-gated inwardly rectifying potassium channel KCNH2 (Q12809 whole entry): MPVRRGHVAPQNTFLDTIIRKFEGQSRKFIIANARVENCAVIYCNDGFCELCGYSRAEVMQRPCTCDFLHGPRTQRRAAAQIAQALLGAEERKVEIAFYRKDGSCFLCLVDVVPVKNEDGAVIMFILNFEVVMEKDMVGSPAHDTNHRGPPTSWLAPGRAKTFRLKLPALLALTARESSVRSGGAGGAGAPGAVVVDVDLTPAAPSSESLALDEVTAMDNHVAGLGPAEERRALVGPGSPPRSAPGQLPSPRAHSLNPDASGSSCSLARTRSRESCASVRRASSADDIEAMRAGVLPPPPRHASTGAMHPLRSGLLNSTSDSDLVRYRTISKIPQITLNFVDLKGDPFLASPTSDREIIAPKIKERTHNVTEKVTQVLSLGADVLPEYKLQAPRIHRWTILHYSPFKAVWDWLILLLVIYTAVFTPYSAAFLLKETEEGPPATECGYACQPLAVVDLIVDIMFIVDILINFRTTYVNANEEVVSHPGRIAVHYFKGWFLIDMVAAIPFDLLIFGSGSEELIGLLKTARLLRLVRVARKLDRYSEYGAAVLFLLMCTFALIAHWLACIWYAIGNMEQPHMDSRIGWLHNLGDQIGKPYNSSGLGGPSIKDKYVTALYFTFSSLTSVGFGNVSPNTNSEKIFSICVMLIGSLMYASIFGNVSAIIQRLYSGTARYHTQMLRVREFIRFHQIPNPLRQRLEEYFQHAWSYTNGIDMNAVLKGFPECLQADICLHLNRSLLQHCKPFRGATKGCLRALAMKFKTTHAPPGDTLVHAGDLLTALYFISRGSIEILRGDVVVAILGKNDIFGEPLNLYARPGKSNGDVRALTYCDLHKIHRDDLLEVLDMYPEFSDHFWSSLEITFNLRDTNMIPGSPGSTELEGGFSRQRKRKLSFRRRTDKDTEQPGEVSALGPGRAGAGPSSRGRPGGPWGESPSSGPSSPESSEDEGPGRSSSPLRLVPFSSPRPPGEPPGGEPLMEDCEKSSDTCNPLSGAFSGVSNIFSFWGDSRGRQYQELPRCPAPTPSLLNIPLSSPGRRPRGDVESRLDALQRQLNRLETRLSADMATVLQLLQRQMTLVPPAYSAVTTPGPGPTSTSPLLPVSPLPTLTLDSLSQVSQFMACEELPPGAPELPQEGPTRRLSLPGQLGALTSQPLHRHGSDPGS
Description: Displacement of radiolabeled MK-499 from human ERG channel

[8] = Plasma concentration in C57BL/6 mouse at 10 mg/kg, po measured after 2.5 hrs; type: ADME, organism-based; set-up: dose 10 mg/kg, route oral
Mus musculus [9] = experiment: Antidiabetic activity in C57BL/6 mouse assessed as reduction of glucose excursion at 10 mg/kg, po by ipGTT; type: functional; set-up: scale not given: the % may be the effect or the level left
Mus musculus [10] = experiment: Antidiabetic activity in C57BL/6N mouse assessed as reduction of blood glucose level at 0.01 to 1 mg/kg, po measured over 5 hrs; type: functional, organism-based
Mus musculus [11] = experiment: Antidiabetic activity in SSTR3-knockout mouse assessed as reduction of blood glucose excursion at 1 mg/kg by OGTT; type: functional; set-up: scale not given: the % may be the effect or the level left
Mus musculus [12] = experiment: Antidiabetic activity in C57BL/6N mouse assessed as reduction of blood glucose excursion at 1 mg/kg by OGTT ( Rvb = 91%); type: functional
Mus musculus [13] = experiment: Antidiabetic activity in po dosed C57BL/6 mouse assessed as reduction of glucose excursion by OGTT; type: functional, organism-based
[14] = target: Somatostatin receptor type 5 (Homo sapiens) (UniProt P35346); experiment: Inhibition of human SSTR5 transfected in CHO cells assessed as inhibition of SRIF-induced reduction of cAMP accumulation at 5 uM after 45 mins; type: functional, cell-based
Chain of Somatostatin receptor type 5 (Homo sapiens) (P35346 whole entry): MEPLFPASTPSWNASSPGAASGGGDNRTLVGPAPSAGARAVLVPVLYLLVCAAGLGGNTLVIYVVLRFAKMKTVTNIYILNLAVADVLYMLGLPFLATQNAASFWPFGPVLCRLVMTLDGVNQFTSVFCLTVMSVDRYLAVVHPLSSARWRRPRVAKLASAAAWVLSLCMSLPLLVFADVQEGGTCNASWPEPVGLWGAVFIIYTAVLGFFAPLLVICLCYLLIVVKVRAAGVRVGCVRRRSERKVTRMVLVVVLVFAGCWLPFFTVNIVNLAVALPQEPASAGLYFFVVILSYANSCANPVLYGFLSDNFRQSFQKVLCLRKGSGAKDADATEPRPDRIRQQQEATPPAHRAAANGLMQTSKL

[15] = target: Somatostatin receptor type 4 (Homo sapiens) (UniProt P31391); settings: CHO, 20 uM
Chain of Somatostatin receptor type 4 (Homo sapiens) (P31391 whole entry): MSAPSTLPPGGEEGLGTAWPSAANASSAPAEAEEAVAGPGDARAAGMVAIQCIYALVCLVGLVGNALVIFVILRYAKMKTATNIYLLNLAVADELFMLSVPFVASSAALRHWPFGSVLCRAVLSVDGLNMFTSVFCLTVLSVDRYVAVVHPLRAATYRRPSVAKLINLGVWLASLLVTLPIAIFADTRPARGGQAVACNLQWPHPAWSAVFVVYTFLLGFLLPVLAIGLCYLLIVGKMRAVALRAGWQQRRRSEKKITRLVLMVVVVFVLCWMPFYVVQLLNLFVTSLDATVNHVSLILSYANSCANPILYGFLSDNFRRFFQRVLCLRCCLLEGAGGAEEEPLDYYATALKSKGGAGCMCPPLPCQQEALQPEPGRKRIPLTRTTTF

[16] = Volume of distribution at steady state in rat at 2 mg/kg, po and 1 mg/kg, iv; settings: in vivo
[17] = Clearance in rat at 1 mg/kg, iv; settings: in vivo
[18] = Half life in rat at 1 mg/kg, iv; settings: in vivo
[19] = Volume of distribution at steady state in mouse at 10 mg/kg, po and 4 mg/kg, iv; settings: in vivo
[20] = Clearance in mouse at 4 mg/kg, iv; settings: in vivo
[21] = Half life in mouse at 4 mg/kg, iv; settings: in vivo
in vivo [22] = settings: rat, po, 2 mg/kg
in vivo [23] = settings: rat, plasma, po, 2 mg/kg
in vivo [24] = settings: mouse, po, 10 mg/kg
in vivo [25] = settings: mouse, plasma, po, 10 mg/kg
[26] = Volume of distribution at steady state in rhesus monkey at 1 mg/kg, iv and 2 mg/kg, po; settings: in vivo
[27] = Clearance in rhesus monkey at 1 mg/kg, iv; settings: in vivo
[28] = Half life in rhesus monkey at 1 mg/kg, iv; settings: in vivo
[29] = Volume of distribution at steady state in dog at 1 mg/kg, iv and 2 mg/kg, po; settings: in vivo
[30] = Clearance in dog at 1 mg/kg, iv; settings: in vivo
[31] = Half life in dog at 1 mg/kg, iv; settings: in vivo
in vivo [32] = settings: rhesus monkey, po, 2 mg/kg
in vivo [33] = settings: dog, po, 2 mg/kg
in vivo [34] = settings: rhesus monkey, plasma, po, 2 mg/kg
in vivo [35] = settings: dog, plasma, po, 2 mg/kg
Mus musculus [36] = experiment: Antidiabetic activity in C57BL/6N mouse assessed as reduction of blood glucose level at 10 mg/kg, po measured after 60 mins post administration; type: functional, organism-based; set-up: dose 10 mg/kg

## Cn1cc(C2(c3cnn(C)c3)N[C@@H](c3nc(-c4ccc(F)cc4)c[nH]3)Cc3c2[nH]c2ccccc32)cn1
[1]
  inhibition: 113%
Mus musculus [2]
  Activity: 68%
[3]
  IC50: 0.48 nM
[4]
  IC50: 0.7 nM
[5]
  IC50: 0.46 nM
[6]
  IC50: 0.74 nM

## Cc1nc(C2(c3noc(C)n3)N[C@@H](c3nc(-c4ccc(F)cc4)c[nH]3)Cc3c2[nH]c2ccccc32)no1
[1]
  inhibition: 133%
Mus musculus [2]
  Activity: 71%
[3]
  IC50: 1.3 nM
[4]
  IC50: 1.2 nM
[5]
  IC50: 0.59 nM
[6]
  IC50: 0.97 nM

## Cc1nc([C@H]2N[C@@H](c3nc(-c4ccc(F)cc4)c[nH]3)Cc3c2[nH]c2ccccc32)no1
[1]
  inhibition: 103%
[7]
  Ki: 385 nM
[3]
  IC50: 18 nM
[4]
  IC50: 19 nM
[6]
  IC50: 19 nM

## Cn1cc([C@H]2N[C@@H](c3nc(-c4ccc(F)cc4)c[nH]3)Cc3c2[nH]c2ccccc32)cn1
[1]
  inhibition: 67%
[8]
  concentration at 2.5 h: 1200 nM
Mus musculus [9]
  Activity: 91%
[7]
  Ki: 300 nM
[3]
  IC50: 4.4 nM
[4]
  IC50: 9.3 nM
[5]
  IC50: 4 nM
[6]
  IC50: 6.9 nM

## Cc1nc([C@]2(c3cnn(C)c3)N[C@@H](c3nc(-c4ccc(F)cc4)c[nH]3)Cc3c2[nH]c2ccccc32)no1
[1]
  inhibition: 87%
Mus musculus [10]
  Activity: inactive
Mus musculus [11]
  Activity: 28%
Mus musculus [12]
  inhibition in vivo at 1 mg/kg: 112%
Mus musculus [13]
  Activity: Dose-dependent effect
[14]
  inhibition: 34%
Mus musculus [2]
  Activity: 109%
[15]
  inhibition: 42%

## Cn1cc([C@@H]2N[C@@H](c3nc(-c4ccc(F)cc4)c[nH]3)Cc3c2[nH]c2ccccc32)cn1
[1]
  inhibition: 66%
[8]
  concentration at 2.5 h: 1600 nM
[16]
  Vd: 4.59 L/kg
[17]
  clearance: 25.3 mL/min/kg
[18]
  half-life: 2.26 h
[19]
  Vd: 10.8 L/kg
[20]
  clearance: 99.6 mL/min/kg
[21]
  half-life: 2.24 h
Mus musculus [9]
  Activity: 84%
[7]
  Ki: 2190 nM
[3]
  IC50: 26 nM
[4]
  IC50: 33 nM
In vivo [22]
  bioavailability: 47%
In vivo [23]
  AUC(0-t): 1.38 µM·h
In vivo [24]
  bioavailability: 100%
In vivo [25]
  AUC(0-t): 4.11 µM·h
[5]
  IC50: 4.8 nM
[6]
  IC50: 7.2 nM

## c1ccc(-c2c[nH]c([C@H]3Cc4c([nH]c5ccccc45)[C@@H](C4CCOCC4)N3)n2)cc1
[1]
  inhibition: 98%
[8]
  concentration at 2.5 h: 3800 nM
Mus musculus [9]
  Activity: 75%
[4]
  IC50: 11 nM

## Cc1nc([C@@]2(c3cnn(C)c3)N[C@H](c3nc(-c4ccc(F)cc4)c[nH]3)Cc3c2[nH]c2ccccc32)no1
[1]
  inhibition: 92%
Mus musculus [2]
  Activity: 81%

## Cc1nc([C@@]2(c3cnn(C)c3)N[C@@H](c3nc(-c4ccc(F)cc4)c[nH]3)Cc3c2[nH]c2ccccc32)no1
[1]
  inhibition: 130%
Mus musculus [2]
  Activity: 63%

## Cc1nc([C@@H]2N[C@@H](c3nc(-c4ccc(F)cc4)c[nH]3)Cc3c2[nH]c2ccccc32)no1
[1]
  inhibition: 92%
[8]
  concentration at 2.5 h: 200 nM
[26]
  Vd: 1.75 L/kg
[27]
  clearance: 2.79 mL/min/kg
[28]
  half-life: 8.08 h
[29]
  Vd: 0.87 L/kg
[30]
  clearance: 1.78 mL/min/kg
[31]
  half-life: 6.69 h
[16]
  Vd: 5.83 L/kg
[17]
  clearance: 9.67 mL/min/kg
[18]
  half-life: 8.14 h
[19]
  Vd: 7.21 L/kg
[20]
  clearance: 39.9 mL/min/kg
[21]
  half-life: 2.58 h
Mus musculus [9]
  Activity: 87%
[7]
  Ki: 2210 nM
[3]
  IC50: 29 nM
[4]
  IC50: 58 nM
In vivo [32]
  bioavailability: 51%
In vivo [33]
  bioavailability: 67%
In vivo [34]
  AUC(0-t): 12.4 µM·h
In vivo [22]
  bioavailability: 58%
In vivo [23]
  AUC(0-t): 4.36 µM·h
In vivo [24]
  bioavailability: 76%
In vivo [25]
  AUC(0-t): 7.73 µM·h
In vivo [35]
  AUC(0-t): 27.6 µM·h
[5]
  IC50: 8.1 nM
[6]
  IC50: 9.2 nM

## Cc1nc([C@]2(c3cnn(C)c3)N[C@H](c3nc(-c4ccc(F)cc4)c[nH]3)Cc3c2[nH]c2ccccc32)no1
[1]
  inhibition: 68%
Mus musculus [2]
  Activity: 80%

## Cc1cnc(C(=O)NCCc2ccc(S(=O)(=O)NC(=O)NC3CCCCC3)cc2)cn1
Mus musculus [36]
  Activity: Active

## Fc1ccc(-c2c[nH]c([C@H]3Cc4c([nH]c5ccccc45)[C@@H](C4CCOCC4)N3)n2)cc1
[1]
  inhibition: 108%
[8]
  concentration at 2.5 h: 4600 nM
Mus musculus [9]
  Activity: 79%
[3]
  IC50: 26 nM
[4]
  IC50: 5.7 nM
[5]
  IC50: 1.7 nM
[6]
  IC50: 2.8 nM

## Fc1ccc(-c2c[nH]c([C@H]3Cc4c([nH]c5ccccc45)C(c4ccccc4)(c4ccccc4)N3)n2)cc1
[1]
  inhibition: 101%
[7]
  Ki: 44 nM
[3]
  IC50: 2.4 nM
[4]
  IC50: 7.3 nM
[6]
  IC50: 0.76 nM
